Experimental data from patent US3981868A.
≈ marks a conversion by molar mass, not a printed value.

How the values were obtained:
[1] = system: basal gastric acid secretion; test: inhibition of basal gastric acid secretion (acute gastric fistula rat); format: in vivo, Female Sprague-Dawley rats; settings: 10 mg./kg. intraduodenal
Method: Inhibition of basal gastric acid secretion was determined in the acute gastric fistula rat as follows. Female Sprague-Dawley rats (Charles River Laboratories) weighing 140-160 grams are fasted in individual cages for 18-24 hours. The rats are then lightly anesthetized with ether and their front teeth extracted to avoid destruction of the plastic cannula. A midline incision is then made and the stomach and duodenum exposed. A flanged polyvinyl tube is inserted into the fundic portion of the stomach and secured with a purse string suture line using 4-0 Mersilene. The rat is then dosed by injection of the compound into the duodenum (1.0 ml. per 100 grams body weight). After dosing, the abdominal wall and skin are closed using metal wound clips. The rat is replaced in a cage containing a longitudinal slit to allow the polyvinyl tube to hang freely. An 8 ml. plastic collecting tube is attached to the flanged cannula and hangs freely below the cage. The first 30 minute sample is discarded designating this time as zero. The collecting tube is attached again and samples removed at the end of 60 and 120 minutes. The hourly samples are then transferred to a 15 ml. centrifuge tube and centrifuged for 5-10 minutes. Total and sediment volume are then recorded with the supernatant volume being used as volume of secretion. A 1 ml. or less aliquot is then removed and placed in a 50 ml. beaker containing 10 ml. of distilled water. This sample is then titrated using 0.01N NaOH to pH 7.0 using a Beckman zeromatic pH meter. Volume, titratable acidity (meq/L) and total acid output (μ eq/hour) are recorded. Percent inhibition is determined by comparison with the appropriate control. Groups of three rats were used. All compounds are administered in vehicle (0.5% methocel, 0.4% Tween 80, saline) at a constant volume of 1 ml./100 gram rat. Samples were sonicated with care to prevent overheating.

gerbil ascending colon = test: contraction of gerbil colon by dl-PGE1; settings: final concentration of 200 ng./ml.; preliminary tests
Method: Sections of ascending colon, approximately 20 mm. long, from mature male gerbils (Meriones unguiculatus) weighing 70-80 g. were mounted in DeJalon's solution (154 mM NaCl; 5.95 mM NAHCO3 ; 278 mM glucose, 5.64 mM KCl and .27 mM Cacl2 in 20 ml. tissue baths) (L. and K Glass Co., Lynnhurst, N.J.). The medium was continually gassed with a mixture of 95% 02 -5% CO2 and maintained at 37°C. The tissues were suspended via silk suture threads between a glass hook at the base and a model FT .03C force displacement transducer (Grass Instrument, Quincy, Mass.). Contractions were recorded on a Poly-Viso polyraph (Sanborn Co., Cambridge, Mass.
After mounting, tissues were allowed to stabilize 15-20 minutes during which time adjustments were made to establish and maintain a 0.5 g. resting tension on the muscle. Thereafter, test cycles of 3-5 minutes were begun and consisted of a 1 minute exposure to the potential antagonist, if called for, followed by a 1 minute exposure to the prostaglandin agonist, a 15-30 sec. washout and a recovery period of 2-2.5 minutes. […] During the washout period, the tissue was rinsed with a measured amount equalling 8 volumes of medium.
Following stabilization, muscles were exposed 2 to 3 times to this concentration of dl-PGE1 until a consistent response was recorded. […]

diastolic blood pressure = test: hypotensive activity in anesthetized rats (minimal dose lowering diastolic blood pressure about 10 mm.); format: in vivo, Male Wistar strain rats; settings: Rattus norvegicus; intravenous; dose producing a decrease of about 10 mm. in diastolic blood pressure
Method: This procedure is a modification of the technique described by Pike et al., Prostaglandins, Nobel Symposium 2, Stockholm, June, 1966; p. 165.
Male Wistar strain rats (Royal Hart Farms) averaging approximately 250 grams in weight were fastened to rat boards in a supine position by means of canvas vests and limb ties. The femoral area was infiltrated subcutaneously with lidocaine and the iliac artery and vein were exposed and cannulated. Arterial blood pressure (systolic/diastolic) was recorded using a Statham P23 Db pressure transducer-Offner dynograph system. To obtain a stable blood pressure, the animals were anesthetized before use with pentobarbital, 30 mg./kg. of body weight intravenously, and also were given hexamethonium bitartrate, 2 mg./kg., of body weight intravenously. The test compounds were prepared by ultrasonic dispersion in a saline-Tween 80 vehicle. A constant intravenous dose volume of 0.5 ml. was administered and test doses ranged from 0.1 to 10.0 mg./kg. of body weight. Increasing or decreasing doses were selected depending on the dose response obtained. In Table I below are set forth the minimal doses required to produce a decrease of about 10 mm. in diastolic blood pressure for typical compounds of the present invention.

[2] = system: Streptococcus pyogenes C 203; test: agar-dilution streak-plate antibacterial assay (8); format: cell-based; settings: C203, read-out: Minimal inhibitory conc.
Method: The novel compounds of the present invention are also useful as antimicrobial agents. […] In this assay, the compounds to be tested are made up to contain 2.5 mg. of test compound per milliliter of solution. Observing sterile techniques, two-fold serial dilutions are made of each test solution. One milliliter of each of the original solutions and of each of the serial dilutions is then added to 9 ml. of warm sterile nutrient agar capable of supporting growth of the bacterial test cultures. A second set of agar dilutions is prepared identical to the first except that the nutrient agar is designed to support the growth of the fungal test cultures. […] The test bacteria and yeast-like fungi are prepared for use by growing in broth overnight. The spores of the filamentous fungi are harvested from mature agar slant cultures and are suspended in sterile physiological saline solution. A loopful of each of the resulting live suspensions is then, still employing sterile techniques, streaked upon the surfaces of each of the agar plates and the resulting streaked plates are then incubated. After an appropriate period of time, each of the streaks on each of the plates is inspected visually and the extent, if any, of bacterial or fungal growth is noted. The minimal inhibitory concentration (expressed in micrograms per milliliter) is defined as the concentration of test compound causing complete inhibition of growth of any particular organism. In a representative operation, and merely by way of illustration, the minimal inhibitory concentration of typical compounds of the present invention against a variety of test organisms as determined in the above-described assay are set forth in Tables II and III below: […]

Row | SMILES | % Inhibition after 120 minutes, Total Acid Output [1] | % Inhibition after 120 minutes, Total Acidity [1] | muscle contraction (gerbil ascending colon) | minimal effective dose (diastolic blood pressure) | MIC [2]
1 | CCCCCC/C=C/[C@H]1CCC(=O)[C@@H]1CCCCCCC(=O)N(C(=O)Nc1ccc(N(C)C)cc1)c1ccc(N(C)C)cc1 (relative stereo) [4,4'-bis(dimethylamino)-N-{7-[trans-2-(1-octenyl)-5-oxocyclopentyl]-heptanoyl}carbanilide] | 72% | 60% | – | – | –
2 | CCCCC[C@H](O)/C=C/[C@H]1[C@H](O)CC(=O)[C@@H]1CCCCCCC(=O)O (relative stereo) [dl-PGE1, prostaglandin-E1] | – | – | maximal muscle contraction | – | –
3 | CCCCCC/C=C/[C@H]1CCC(=O)[C@@H]1CCCCCCC(=O)Nc1cccnc1 (relative stereo) [N-(pyridyl-3)-9-oxo-13-trans-prostenamide] | 54% | 30% | – | 2 to 8 mg/kg | 5 µg/mL (≈ 12.5 µM)
